For one experiment, the target named is T1, human mGlu2 (Homo sapiens, UniProt Q14416).
T1 construct: expressed in transfected cells; host or cells: HEK-293
The experiment in a line: mGlu GIRK cell-based thallium flux assay, human mGlu2. The conditions noted are these: HEK-293 cells co-expressing human mGlu2 and GIRK; EC80 glutamate; Tl flux. Here is the method: The day before the assay, GIRK cells co-expressing human mGlu3, human or rat mGlu2, as described above, were plated in black-walled, clear-bottomed, amine-coated 384-well plates at a density of 15,000 cells/20 μL/well in the assay medium (glutamine-depleted basal DMEM supplemented with 10% dialyzed FBS, 20 mM HEPES, 1 mM sodium pyruvate). Cells were incubated at 37° C. in the presence of 5% CO2. […] Cells were washed with assay buffer using a microplate washer to remove the medium, resulting in 20 μL of buffer remaining in each well. Immediately, 20 μL of 2× Thallos dye solution was added to cells, and incubated for one hour at 25° C. During the cell dye loading incubation period, a 10-point concentration serial dilution of compound was created from a 10 mM DMSO compound stock by performing a 1:3 serial dilution in DMSO using the Bravo liquid handler. The 2× compound plate was generated by transferring 0.24 μL of the diluted compound in each well to a daughter plate using an Echo acoustic liquid handler.
(§1) After dye-loading, cell plates were washed with assay buffer to remove excess extracellular dye using a microplate washer, resulting in 20 μL of buffer remaining in each well. After a ten-minute equilibration period, cell, compound and agonist plates were loaded into a Hamamatsu μCell kinetic imaging plate reader equipped with liquid handler to monitor fluorescence changes at 480 nm excitation and 540 nm emission settings. Briefly, after collection of baseline fluorescence, 20 μL of compound was added and incubated for two minutes and twenty seconds. This is immediately followed by adding 10 μL of glutamate-thallium buffer to the wells containing compound. The fluorescent signal was monitored an additional 2.5 minutes after the glutamate addition. Multiple reference wells containing no compound received either no glutamate (for a baseline reference), […] glutamate, or ECmax glutamate (for normalization to maximum response). Fluorescence was measured throughout the experiment at a frequency of 1 measurement per every 2 seconds before the glutamate addition and a frequency of 1 measurement per every 1 second after the glutamate addition. Each compound concentration series occurred one time in each plate, and replicates from two or three plates were used in each experimental run. Thallium solutions were handled and disposed of according to guidelines from the Vanderbilt University Chemical Safety department.
Data were normalized using a static ratio function (F/F0) by dividing every fluorescent measurement by the initial fluorescent value for the corresponding well. The increase in signal resulting from the glutamate/thallium addition of the second add was measured by determining the slope from 3 seconds to 13 seconds after the addition. The average of all baseline slopes (no compound, no glutamate) was determined and this value was subtracted from all other slope values. The average of all ECmax slopes was determined and this value was used to normalize the baseline-corrected slopes to a percent max value (% Emax). The % Emax values for each compound series were plotted versus the log of the concentration and fit to a 4-parameter logistical equation with no fixed parameters.
Potency is reported as the IC50 resulting from the curve fit.

In another experiment the target is T2, human mGlu3 (Homo sapiens, UniProt Q14832).
T2 construct: expressed in transfected cells; host or cells: HEK-293
T2 sequence (Q14832 23-879): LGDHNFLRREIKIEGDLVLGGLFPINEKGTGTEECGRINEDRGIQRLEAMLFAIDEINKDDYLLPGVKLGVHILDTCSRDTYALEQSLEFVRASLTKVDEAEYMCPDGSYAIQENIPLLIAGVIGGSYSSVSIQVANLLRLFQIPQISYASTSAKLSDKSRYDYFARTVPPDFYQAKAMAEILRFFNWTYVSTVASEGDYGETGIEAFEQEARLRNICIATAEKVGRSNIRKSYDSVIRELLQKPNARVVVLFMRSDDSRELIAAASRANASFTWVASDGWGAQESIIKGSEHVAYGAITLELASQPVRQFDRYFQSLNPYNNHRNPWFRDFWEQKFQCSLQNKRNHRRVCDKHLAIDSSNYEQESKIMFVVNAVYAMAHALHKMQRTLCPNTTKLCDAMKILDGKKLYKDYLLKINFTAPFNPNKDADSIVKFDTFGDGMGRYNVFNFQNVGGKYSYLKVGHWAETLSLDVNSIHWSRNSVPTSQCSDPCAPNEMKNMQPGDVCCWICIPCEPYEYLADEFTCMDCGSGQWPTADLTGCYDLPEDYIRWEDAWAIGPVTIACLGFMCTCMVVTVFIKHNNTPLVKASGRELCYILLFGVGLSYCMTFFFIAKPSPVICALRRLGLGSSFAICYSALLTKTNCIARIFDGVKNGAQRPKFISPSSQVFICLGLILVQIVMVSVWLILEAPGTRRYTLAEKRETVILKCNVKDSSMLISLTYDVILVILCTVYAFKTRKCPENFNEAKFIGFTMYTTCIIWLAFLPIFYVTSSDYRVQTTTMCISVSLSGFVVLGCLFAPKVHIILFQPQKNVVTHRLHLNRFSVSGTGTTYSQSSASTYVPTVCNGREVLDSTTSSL
The experiment in a line: mGlu GIRK cell-based thallium flux assay, human mGlu3. To be noted: HEK-293 cells co-expressing human mGlu3 and GIRK; EC80 glutamate; Tl flux. Here is the method: Human embryonic kidney (HEK-293) cell lines stably co-expressing human or rat mGlu2 and G protein-coupled inwardly rectifying potassium (GIRK) channels, or human mGlu3 and GIRK, were used for in vitro evaluation of compound activity in thallium flux assay using a fluorescent thallium indicator dye.
The day before the assay, GIRK cells co-expressing human mGlu3, human or rat mGlu2, as described above, were plated in black-walled, clear-bottomed, amine-coated 384-well plates at a density of 15,000 cells/20 μL/well in the assay medium (glutamine-depleted basal DMEM supplemented with 10% dialyzed FBS, 20 mM HEPES, 1 mM sodium pyruvate). Cells were incubated at 37° C. in the presence of 5% CO2. The next day, assay buffer (Hanks balanced salt solution, 20 mM HEPES, 4.16 mM sodium bicarbonate, pH 7.2) was prepared to dilute compounds and Thallos AM fluorescent dye solution. The 2× Thallos dye solution (final concentration 0.34 μM to the cells) was prepared by mixing the dye stock (2.97 mM in DMSO) to 1:1 with 10% pluronic acid before adding to the assay buffer. Cells were washed with assay buffer using a microplate washer to remove the medium, resulting in 20 μL of buffer remaining in each well. Immediately, 20 μL of 2× Thallos dye solution was added to cells, and incubated for one hour at 25° C. During the cell dye loading incubation period, a 10-point concentration serial dilution of compound was created from a 10 mM DMSO compound stock by performing a 1:3 serial dilution in DMSO using the Bravo liquid handler. The 2× compound plate was generated by transferring 0.24 μL of the diluted compound in each well to a daughter plate using an Echo acoustic liquid handler. This is further diluted in 40 μL assay buffer, resulting in a range from 30 μM to 1.5 nM final concentration in the assay. The agonist plate (5×) was prepared to include EC80 glutamate concentration (a concentration to elicit 80% of a maximally effective glutamate concentration) in thallium buffer (125 mM […], 1 mM magnesium sulfate, 1.8 mM calcium sulfate, 5 mM glucose, 10 mM HEPES, pH 7.2, 12.5 mM thallium sulfate).
as §1
Data were normalized using a static ratio function (F/F0) by dividing every fluorescent measurement by the initial fluorescent value for the corresponding well. The increase in signal resulting from the glutamate/thallium addition of the second add was measured by determining the slope from 3 seconds to 13 seconds after the addition. […]

Consider 22 compounds from patent US20240199640A1, “NEGATIVE ALLOSTERIC MODULATORS OF METABOTROPIC GLUTAMATE RECEPTOR 2” (priority 2021, published 2024).

Molecules are shown by their SMILES.

T1 sequence (Q14416 19-872): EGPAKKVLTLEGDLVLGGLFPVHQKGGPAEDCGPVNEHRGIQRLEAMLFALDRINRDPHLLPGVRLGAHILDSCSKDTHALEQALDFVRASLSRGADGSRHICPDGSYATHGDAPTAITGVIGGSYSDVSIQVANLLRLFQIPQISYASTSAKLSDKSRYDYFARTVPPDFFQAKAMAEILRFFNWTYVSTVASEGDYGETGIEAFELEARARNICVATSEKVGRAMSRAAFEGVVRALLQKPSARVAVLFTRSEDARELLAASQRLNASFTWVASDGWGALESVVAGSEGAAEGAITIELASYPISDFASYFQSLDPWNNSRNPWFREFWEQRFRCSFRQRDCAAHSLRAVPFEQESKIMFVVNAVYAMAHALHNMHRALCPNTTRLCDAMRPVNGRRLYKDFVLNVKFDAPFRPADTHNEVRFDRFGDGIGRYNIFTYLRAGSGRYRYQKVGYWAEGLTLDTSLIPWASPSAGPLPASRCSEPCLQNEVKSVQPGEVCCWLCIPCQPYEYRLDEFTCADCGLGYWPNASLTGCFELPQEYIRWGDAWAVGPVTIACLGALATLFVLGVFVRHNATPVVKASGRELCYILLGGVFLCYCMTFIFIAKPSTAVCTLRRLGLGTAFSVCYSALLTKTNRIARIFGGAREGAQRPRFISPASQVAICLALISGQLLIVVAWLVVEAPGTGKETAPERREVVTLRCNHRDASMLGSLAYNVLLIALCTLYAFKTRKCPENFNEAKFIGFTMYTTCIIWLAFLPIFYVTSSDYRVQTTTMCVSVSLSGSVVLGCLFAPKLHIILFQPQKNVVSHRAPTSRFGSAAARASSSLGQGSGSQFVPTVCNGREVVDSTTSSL

Turning to `CC(C)n1ccc(COc2cc3c(cc2-c2ccc(F)cc2)C(=O)NC3)n1` [Compound 4, 6-(4-fluorophenyl)-5-((1-isopropyl-1H-pyrazol-3-yl)methoxy)isoindolin-1-one], inhibition against human mGlu2 was half-maximal at 0.261 µM (IC50). For the same compound, the “Human mGlu3 GIRK IC50 (nM)” value on human mGlu3 was “Inactive”.
Take `Cc1ccc(COc2cc3c(cc2-c2ccc(F)cc2)C(=O)NC3)cn1` [Compound 5, 6-(4-fluorophenyl)-5-((6-methylpyridin-3-yl)methoxy)isoindolin-1-one]: the IC50 at human mGlu2 is 0.392 µM. Besides, the “Human mGlu3 GIRK IC50 (nM)” value at human mGlu3 was “Inactive”.
For `O=C1NCc2cc(OCc3ccncc3)c(-c3ccc(F)cc3)cc21` [Compound 6, 6-(4-fluorophenyl)-5-(pyridin-4-ylmethoxy)isoindolin-1-one], on human mGlu2, the IC50 stood at 0.237 µM. The “Human mGlu3 GIRK IC50 (nM)” value on human mGlu3 was “Inactive”.
At human mGlu2, `COc1cccc(COc2cc3c(cc2-c2ccc(F)cc2)C(=O)NC3)c1` [Compound 7, 6-(4-fluorophenyl)-5-((3-methoxybenzyl)oxy)isoindolin-1-one] returned a half-maximal inhibitory concentration (IC50) of 8.29 µM. The “Human mGlu3 GIRK IC50 (nM)” value at human mGlu3 was “Inactive”.
On to `O=C1NCc2cc(OCc3ccccc3F)c(-c3ccc(F)cc3)cc21` [Compound 8, 5-((2-fluorobenzyl)oxy)-6-(4-fluorophenyl)isoindolin-1-one], for which, at human mGlu2, half-maximal inhibition (IC50) was put at 3.2 µM. In addition, at human mGlu3, the “Human mGlu3 GIRK IC50 (nM)” value is reported as “Inactive”.
For `Cc1ocnc1COc1cc2c(cc1-c1ccc(F)cc1)C(=O)NC2` [Compound 9, 6-(4-fluorophenyl)-5-((5-methyloxazol-4-yl)methoxy)isoindolin-1-one] the same measures were 0.15 µM and “Inactive”.
On to `O=C1NCc2cc(OCc3cc4n(n3)CCCO4)c(-c3ccc(F)cc3)cc21` [Compound 10, 5-((6,7-dihydro-5H-pyrazolo[5,1-b][1,3]oxazin-2-yl)methoxy)-6-(4-fluorophenyl)isoindolin-1-one], for which the IC50 against human mGlu2 came out at 0.423 µM. For the same compound, on human mGlu3, the “Human mGlu3 GIRK IC50 (nM)” value is on record as “Inactive”.
The compound `COc1ccc(-c2cc3c(cc2OCc2ccn(C)n2)CNC3=O)c(F)c1` [Compound 11, 6-(2-fluoro-4-methoxyphenyl)-5-((1-methyl-1H-pyrazol-3-yl)methoxy)isoindolin-1-one] registered an IC50 against human mGlu2 of 0.131 µM. Also, the “Human mGlu3 GIRK IC50 (nM)” value at human mGlu3 is “Inactive”.
`COc1ccc(-c2cc3c(cc2OCc2ccn(C)n2)CNC3=O)cc1` [Compound 12, 6-(4-methoxyphenyl)-5-((1-methyl-1H-pyrazol-3-yl)methoxy)isoindolin-1-one] displayed an IC50 at human mGlu2 of 0.17 µM. Moreover, the “Human mGlu3 GIRK IC50 (nM)” value on human mGlu3 is on record as “Inactive”.
In the case of `Cn1ccc(COc2cc3c(cc2-c2ccccc2F)C(=O)NC3)n1` [Compound 13, 6-(2-fluorophenyl)-5-((1-methyl-1H-pyrazol-3-yl)methoxy)isoindolin-1-one], at human mGlu2, the IC50 was 0.214 µM. The “Human mGlu3 GIRK IC50 (nM)” value on human mGlu3 was “Inactive”.
For `Cn1ccc(COc2cc3c(cc2-c2ccc(C#N)cc2)C(=O)NC3)n1` [Compound 14, 4-(6-((1-methyl-1H-pyrazol-3-yl)methoxy)-3-oxoisoindolin-5-yl)benzonitrile] the same measures were 0.242 µM and “Inactive”.
`COc1ccc(-c2cc3c(cc2OCc2csc(C)n2)CNC3=O)c(F)c1` [Compound 15, 6-(2-fluoro-4-methoxyphenyl)-5-((2-methylthiazol-4-yl)methoxy)isoindolin-1-one] had an IC50 against human mGlu2 of 0.36 µM. Moreover, the “Human mGlu3 GIRK IC50 (nM)” value on human mGlu3 is reported as “Inactive”.
`Cc1nc(COc2cc3c(cc2-c2ccccc2F)C(=O)NC3)cs1` [Compound 16, 6-(2-fluorophenyl)-5-((2-methylthiazol-4-yl)methoxy)isoindolin-1-one] yielded an IC50 on human mGlu2 of 0.357 µM. Besides, the “Human mGlu3 GIRK IC50 (nM)” value on human mGlu3 is “Inactive”.
`O=C1NCc2cc(OCc3ccn(C(F)F)n3)c(-c3ccc(F)cc3)cc21` [Compound 17, 5-((1-(difluoromethyl)-1H-pyrazol-3-yl)methoxy)-6-(4-fluorophenyl)isoindolin-1-one] showed an IC50 at human mGlu2 of 0.292 µM. On human mGlu3, the “Human mGlu3 GIRK IC50 (nM)” value is “Inactive”.
In the same order, the values of `Cc1nc(COc2cc3c(cc2-c2ccc(F)cc2)C(=O)NC3)cs1` [Compound 18, 6-(4-fluorophenyl)-5-((2-methylthiazol-4-yl)methoxy)isoindolin-1-one] are 0.363 µM and “Inactive”.
In turn, `COc1ccc(-c2cc3c(cc2OCc2csc(C)n2)CNC3=O)cc1` [Compound 19, 6-(4-methoxyphenyl)-5-((2-methylthiazol-4-yl)methoxy)isoindolin-1-one] had an IC50 against human mGlu2 of 0.119 µM. In addition, the “Human mGlu3 GIRK IC50 (nM)” value on human mGlu3 is listed as “Inactive”.
Consider `Cc1nc(COc2cc3c(cc2-c2ccccc2C#N)C(=O)NC3)cs1` [Compound 20, 2-(6-((2-methylthiazol-4-yl)methoxy)-3-oxoisoindolin-5-yl)benzonitrile], for which the IC50 against human mGlu2 came to 0.189 µM. Moreover, at human mGlu3, the “Human mGlu3 GIRK IC50 (nM)” value is recorded as “Inactive”.
As to `[2H]C([2H])([2H])Oc1ccccc1-c1cc2c(cc1OCc1csc(C)n1)CNC2=O` [Compound 21, 6-(2-(methoxy-d3)phenyl)-5-((2-methylthiazol-4-yl)methoxy)isoindolin-1-one], the midpoint of inhibition at human mGlu2, the IC50, lay at 1.32 µM. Also, the “Human mGlu3 GIRK IC50 (nM)” value on human mGlu3 is recorded as “Inactive”.
In turn, `[2H]C([2H])([2H])Oc1ccc(-c2cc3c(cc2OCc2csc(C)n2)CNC3=O)cc1` [Compound 22, 6-(4-(methoxy-d3)phenyl)-5-((2-methylthiazol-4-yl)methoxy)isoindolin-1-one] came in with an IC50 at human mGlu2 of 0.115 µM. In addition, the “Human mGlu3 GIRK IC50 (nM)” value on human mGlu3 is on record as “Inactive”.
On human mGlu2, `[2H]C([2H])([2H])Oc1ccccc1-c1cc2c(cc1OCc1ccn(C)n1)CNC2=O` [Compound 23, 6-(2-(methoxy-d3)phenyl)-5-((1-methyl-1H-pyrazol-3-yl)methoxy)isoindolin-1-one] yielded an IC50 of 7.72 µM. In addition, the “Human mGlu3 GIRK IC50 (nM)” value at human mGlu3 was “Inactive”.
Compound `[2H]C([2H])([2H])Oc1ccc(-c2cc3c(cc2OCc2ccn(C)n2)CNC3=O)cc1` [Compound 24, 6-(4-(methoxy-d3)phenyl)-5-((1-methyl-1H-pyrazol-3-yl)methoxy)isoindolin-1-one] came in with an IC50 against human mGlu2 of 0.0995 µM. Besides, the “Human mGlu3 GIRK IC50 (nM)” value at human mGlu3 is recorded as “Inactive”.
In the case of `COc1ccc(-c2cc3c(cc2OCc2ccn(C(F)F)n2)CNC3=O)c(F)c1` [Compound 25, 5-((1-(difluoromethyl)-1H-pyrazol-3-yl)methoxy)-6-(2-fluoro-4-methoxyphenyl)isoindolin-1-one], at human mGlu2, it took 0.04 µM to reach half-maximal inhibition (IC50). Besides, the “Human mGlu3 GIRK IC50 (nM)” value on human mGlu3 is “Inactive”.

In general, IC50 refers to the concentration needed to halve the response being measured. The low end stands for greater potency, the high end for weaker potency.
